The source of these data is US20230137943A1, “PHOTOPROXIMITY PROFILING OF PROTEIN-PROTEIN INTERACTIONS IN CELLS” (The University of Chicago, priority 2019, published 2023).

This assay has as its target T1, SNAP-FLAG/α-FLAG antibody complex (Homo sapiens, UniProt P16455, A127T/A154D/C150Q/C62A/E30R/G131K/G132T/G153L/K125A/K32I/L33F/M134L/N157G/Q115S/Q116H/R128A/R135S/S151G/S152D/S159E).
T1 construct: host or cells: clarified lysate of HEK293T cells transiently or stably expressing SnapFlag
T1 sequence (P16455 1-182 E30R/K32I/L33F/C62A/Q115S/Q116H/K125A/A127T/R128A/G131K/G132T/M134L/R135S/C150Q/S151G/S152D/G153L/A154D/N157G/S159E limits assumed): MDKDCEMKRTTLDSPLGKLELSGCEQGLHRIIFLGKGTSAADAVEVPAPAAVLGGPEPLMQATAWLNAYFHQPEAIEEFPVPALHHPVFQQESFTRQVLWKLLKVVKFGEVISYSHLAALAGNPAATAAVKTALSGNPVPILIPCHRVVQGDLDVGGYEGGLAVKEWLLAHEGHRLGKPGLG
Briefly: Proximity-labeling assay in cell lysate (anti-biotin / anti-mouse Western blot). It counts as biochemical. To be noted: 500 nM probe; for Proximal labeling of heavy and light chains upon irradiation: 365 nm light 10 minutes (FIG. 4C, FIG. 12B). How it is done: Proximity-labeling assays: Clarified cell lysate from HEK293T cells either transiently (see FIG. 4B) or stably (see FIG. 4C) expressing SNAP-Tag (NEB #N9183S; New England Biolabs, Ipswich, Mass., United States of America) or SnapFlag was normalized to 1 mg/mL and 250 μL aliquots incubated in a microcentrifuge tube with either 500 nM of PP1. PP2, or DMSO for 1 hour at 37° C. Washed anti-FLAG M2 affinity gel, 40 μL of a 50% slurry, was transferred to each reaction in 750 μL of DPBS and the resultant suspension left to rotate overnight at 4° C. (Sigma #A2220; Sigma-Aldrich, St. Louis, Mo., United States of America). Samples were then spun down at 4000×g, supernatant aspirated, and the resin washed with 1M urea in DPBS (1 mL×8) followed by DPBS (1 mL). After being resuspended in 100 μL of DPBS, the samples were placed on ice where they were irradiated with 365 nm light for 10 minutes (SPECTROLINKER™ XL-1500a UV crosslinker, Spectronics Corporation, Westbury, N.Y., United States of America). Once irradiated, the beads were washed with 100 mM pH 3.5 glycine buffer (100 μL×2) and DPBS (1 mL). To elute the remaining SNAP-FLAG and resin-bound FLAG-antibody the beads were boiled for 5 minutes at 95° C. in 20 μL 4×-loading buffer containing 8% SDS and 400 mM DTT. After which, 60 μL of DPBS was added and the suspension boiled at 95° C. for an additional 5 minutes. The samples were then run on SDS-PAGE gel and transferred to nitrocellulose where they were stained with anti-mouse IR dye (Li-cor #926-68072; Li-cor Biosciences, Lincoln, Nebr., United States of America) and streptavidin IR dye (Li-cor #926-32230; Li-cor Biosciences, Lincoln, Nebr., United States of America). Bands corresponding to biotinylated proteins and the FLAG antibody were visualized using an Odyssey infrared imager (Li-cor Biosciences, Lincoln, Nebr., United States of America).
To study if proximal protein interactors could be labeled in response to the dual photoactivation of PP1 in vitro, the interaction between SNAP-FLAG protein and an α-FLAG monoclonal antibody (mAb) was examined in cell lysate. In this assay, proximal biotinylation of both heavy and light chains of the antibody was expected, as well as self-labeling of the SNAP-FLAG protein, under conditions where the protein complex is formed and the PP1 probe is photoactivated. To test this hypothesis in the presence and absence of the protein-protein complex, SNAP protein that contained or lacked the FLAG epitope was treated with PP1 probe, followed by incubation with α-FLAG mAb, bead-based pulldown of the complexes, and subsequent photoactivation. […] The requirement for photoactivation of PP1, as well as a related probe PP2 (see FIG. 6) was tested by forming the SNAP-FLAG/α-FLAG complexes, and then comparing protein biotinylation with or without irradiation.
To study if proximal protein interactors could be labeled in response to the dual photoactivation of AC1 (see FIG. 12A) in vitro, the interaction between SNAP-FLAG protein and an α-FLAG monoclonal antibody (mAb) was examined in cell lysate. Briefly, 250 μL aliquots of cell lysate (HEK293T, SNAP-Flag) was incubated in a microcentrifuge tube with either 500 nM of photoprobe, or DMSO for 1 hour at 37° C. Washed anti-FLAG M2 affinity gel, 40 μL of a 50% slurry, was transferred to each reaction in 750 μL of DPBS and the resultant suspension left to rotate overnight at 4° C. (Sigma #A2220; Sigma-Aldrich, St. Louis, Mo., United States of America). Samples were then spun down at 4000×g, supernatant aspirated, and the resin washed with 1M urea in DPBS (1 mL×8) followed by DPBS (1 mL). After being resuspended in 250 μL of DPBS, the +UV samples were placed on ice where they were irradiated with 365 nm light for 10 minutes (SPECTROLINKER™ XL-1500a UV crosslinker, Spectronics Corporation, Westbury, N.Y., United States of America). Once irradiated, the beads were washed with 1 M Urea (1 mL×2) and DPBS (1 mL×2). […]
For orientation: A western blot detects proteins with antibodies after separation by electrophoresis.

As to `COc1cc(COC(=O)NC(CCCCNC(=O)CCC2(C)N=N2)C(=O)NCCCCC2SCC3NC(=O)NC32)c([N+](=O)[O-])cc1OCCCC(=O)NCc1ccc(COc2nc(N)nc3[nH]cnc23)cc1` (centres unmarked) [AC1], the “Proximal labeling of heavy and light chains upon irradiation” value is “labels a proximal protein binding partner”.

Turning to `COc1cc(C(C)OC(=O)NC(CCCCNC(=O)CCC2(C)N=N2)C(=O)NCCCCCNC(=O)CCCCC2SCC3NC(=O)NC32)c([N+](=O)[O-])cc1OCCCC(=O)NCc1ccc(COc2nc(N)nc3[nH]cnc23)cc1` (centres unmarked) [PP1], the “Proximal labeling of heavy and light chains upon irradiation” value was “a discrete biotinylated band was formed on both heavy and light chains”. In addition, the “Biotinylation of α-FLAG antibody chains with SNAP-FLAG protein” value (FLAG epitope present, 365 nm 10 minutes (FIG. 4B)) was “robust biotinylation of both heavy and light chain fragments”. Also, the “Biotinylation with SNAP protein that lacked the FLAG sequence” value (no FLAG epitope, 365 nm 10 minutes (FIG. 4B)) was “no protein-biotinylation”. For the setting “not exposed to 365 nm light (FIG. 4C)”, the “Proximal labeling of heavy/light chain without irradiation” value is “No proximal labeling”.
